Experiment: method code SF-AS, from DOI: 10.2175/106143002x139965, PMID: 12150246

SMILES | logP
Nc1c(Cl)cc([N+](=O)[O-])cc1Cl | 2.84
Clc1cccc(Br)c1Cl | 4.61
N#Cc1ccc(Cl)cc1 | 2.24
Nc1cc([N+](=O)[O-])ccc1Cl | 2.2
O=[N+]([O-])c1cc(Cl)ccc1O | 2.48
Clc1ccc(I)cc1 | 4.12
Clc1cccc(I)c1Cl | 4.93
Nc1ccc([N+](=O)[O-])cc1Cl | 2.14
Clc1cccc(Cl)c1Br | 4.17
O=[N+]([O-])c1ccc(Cl)c([N+](=O)[O-])c1 | 2.18
Fc1ccc(Cl)cc1Cl | 3.38
Nc1ccc(Cl)cc1[N+](=O)[O-] | 2.56
Nc1ccc(Cl)c(Cl)c1 | 2.55
Nc1ccc(F)cc1Cl | 2.04
Fc1c(Cl)cccc1Cl | 3.38
